We go through 11 compounds from ChEMBL document CHEMBL5149987, “Design, Synthesis, and Evaluation of WD-Repeat-Containing Protein 5 (WDR5) Degraders” (J Med Chem, 2021).

The structures appear in SMILES notation. Active and inactive are the calls of the source. No cut-off for these calls is given here.

Assay [1] deals with T1, WD repeat-containing protein 5 (Homo sapiens, UniProt P61964). Kind of assay: Displacement of N-(4'-((17-(5,5-difluoro-7-(1H-pyrrol-2-yl)-5H-5l4,6l4-dipyrrolo[1,2-c:2',1'-f][1,3,2]diazaborinin-3-yl)-15-oxo-4,7,10-trioxa-14-azaheptadecyl)carbamoyl)-4-(4-methylpiperazin-1-yl)-[1,1'-biphenyl]-3-yl)-6-hydroxy-4-(trifluoromethyl)nicotinamide tracer from N-/C-terminal NanoLuc-fused full-length WDR5 (unknown origin) transfected in HEK293T cell lysate incubated for 2 hrs by NanoBRET assay. The class given is subcellular.

Assay [2] has as its target T1, WD repeat-containing protein 5.
Description: Binding affinity to recombinant WDR5 (unknown origin) expressed in Escherichia coli BL21 assessed as shift in melting temperature by DSF assay
Assay [3] shares this target. Kind of assay: Displacement of N-(4'-((17-(5,5-difluoro-7-(1H-pyrrol-2-yl)-5H-5l4,6l4-dipyrrolo[1,2-c:2',1'-f][1,3,2]diazaborinin-3-yl)-15-oxo-4,7,10-trioxa-14-azaheptadecyl)carbamoyl)-4-(4-methylpiperazin-1-yl)-[1,1'-biphenyl]-3-yl)-6-hydroxy-4-(trifluoromethyl)nicotinamide tracer from N-/C-terminal NanoLuc-fused full-length WDR5 (unknown origin) transfected in HEK293T cells incubated for 2 hrs by NanoBRET assay. The class given is cell-based. (In general: Bioluminescence resonance energy transfer reports proximity on the nanometre scale.)

Assay [4] relates to MV4-11. Put plainly: Cytotoxicity against human MV4-11 cells assessed as defect in cell proliferation at 10 uM incubated for 15 days with replacement of fresh medium containing compound on every third day. The note with it: time 15.0 day. It counts as functional, cell-based.
Assay [5] concerns MV4-11. Kind of assay: Cytotoxicity against human MV4-11 cells expressing VHL assessed as defect in cell proliferation at 5 to 10 uM incubated for 15 days with replacement of fresh medium containing compound on every third day. The class given is functional, cell-based. The note with it: dose 5-10 µM, time 15.0 day.
Assay [6] addresses T1, WD repeat-containing protein 5. This is another data set of the same source.
Description: Binding affinity to recombinant WDR5 (unknown origin) expressed in Escherichia coli BL21 assessed as change in entropy by isothermal titration calorimetry
Assay [7] has the same target. The source holds these as a separate data set.
Description: Binding affinity to recombinant WDR5 (unknown origin) expressed in Escherichia coli BL21 assessed as change in enthalpy by isothermal titration calorimetry
For assay [8] the target is unchanged. Kind of assay: Binding affinity to recombinant WDR5 (unknown origin) expressed in Escherichia coli BL21 assessed as dissociation constant by isothermal titration calorimetry. For orientation: In ITC the heat of successive injections is recorded.

In general, IC50 refers to the concentration needed to halve the response being measured. High values mean weaker potency in that assay, low ones greater potency in that assay. On to `Cc1ncsc1-c1ccc(CNC(=O)[C@@H]2C[C@@H](O)CN2C(=O)[C@@H](NC(=O)CCOCCOCCOCCOc2ccc(-c3cn4c(n3)CCC4)cc2CNC(=O)Cc2ccc(Cl)c(Cl)c2)C(C)(C)C)cc1`, for which the IC50 in assay [1] and in assay [3] was at least 50 µM each time. The deltaTm in assay [2] was determined as 3.6 K.

Take `Cc1ncsc1-c1ccc(CNC(=O)[C@@H]2C[C@@H](O)CN2C(=O)[C@@H](NC(=O)CCOCCOCCOCCOCCOCCOc2ccc(-c3cn4c(n3)CCC4)cc2CNC(=O)Cc2ccc(Cl)c(Cl)c2)C(C)(C)C)cc1`: the IC50 in assay [1] and in assay [3] was at least 50 µM each time. In assay [2], the deltaTm was determined as 4.3 K.

On to `Cc1ncsc1-c1ccc(CNC(=O)[C@@H]2C[C@@H](O)CN2C(=O)[C@@H](NC(=O)CCOCCOCCOCCOCCOCCOCCOCCOc2ccc(-c3cn4c(n3)CCC4)cc2CNC(=O)Cc2ccc(Cl)c(Cl)c2)C(C)(C)C)cc1`, for which the 50% inhibitory concentration (IC50) in assay [1] and in assay [3] was at least 50 µM throughout. The deltaTm in assay [2] came to 4.6 K.

Take `COc1cc(C(=O)NCc2ccc(CNC(=O)c3ccc(-c4ccc(N5CCN(C)CC5)c(NC(=O)c5c[nH]c(=O)cc5C(F)(F)F)c4)cc3)cc2)ccc1NC(=O)[C@@H]1N[C@@H](CC(C)(C)C)[C@](C#N)(c2ccc(Cl)cc2F)[C@H]1c1cccc(Cl)c1F`: the IC50 in assay [1] and in assay [3] was at least 50 µM in each case. Also, the deltaTm in assay [2] came to 0.7 K.

For the compound `Cc1ncsc1-c1ccc(CNC(=O)[C@@H]2C[C@@H](O)CN2C(=O)[C@@H](NC(=O)CCOCCOCCOc2ccc(-c3cn4c(n3)CCC4)cc2CNC(=O)Cc2ccc(Cl)c(Cl)c2)C(C)(C)C)cc1`, the result with MV4-11 [4] and in the assay on MV4-11 [5] was Active.

Regarding `COc1cc(C(=O)NCCOCCOCCOCCOCCOCCOCCOCCNC(=O)c2ccc(-c3ccc(N4CCN(C)CC4)c(NC(=O)c4c[nH]c(=O)cc4C(F)(F)F)c3)cc2)ccc1NC(=O)[C@@H]1N[C@@H](CC(C)(C)C)[C@](C#N)(c2ccc(Cl)cc2F)[C@H]1c1cccc(Cl)c1F`, the concentration for half-maximal inhibition (IC50) in assay [1] and in assay [3] was at least 50 µM in each case. In assay [2], this compound showed a deltaTm of 0.3 K.

As a reminder, the Kd is the free concentration of one partner at which half of the binding sites on the other are occupied at equilibrium, for simple one-to-one binding. In assay [6], `COc1ccc(-c2cn3c(n2)CCC3)cc1CNC(=O)Cc1ccc(Cl)c(Cl)c1` showed a TdeltaS of 0.7 kcal/mol. Moreover, the IC50 in assay [1] and in assay [3] was at least 50 µM each time. In addition, the deltaTm in assay [2] (filed as modulator) is 4.2 K. The deltaH in assay [7] is -10 kcal/mol. Besides, in assay [8], the Kd worked out at 125 µM.

`Cc1ncsc1-c1ccc(CNC(=O)[C@@H]2C[C@@H](O)CN2C(=O)[C@@H](NC(=O)CCOCCOCCOCCOCCOc2cc(-c3cn4c(n3)CCC4)ccc2CNC(=O)Cc2ccc(Cl)c(Cl)c2)C(C)(C)C)cc1`: the half-inhibitory concentration (IC50) in assay [1] and in assay [3] was at least 50 µM in each case. Besides, the deltaTm in assay [2] amounted to 3.4 K.

Consider `COc1cc(C(=O)NCCOCCNC(=O)c2ccc(-c3ccc(N4CCN(C)CC4)c(NC(=O)c4c[nH]c(=O)cc4C(F)(F)F)c3)cc2)ccc1NC(=O)[C@@H]1N[C@@H](CC(C)(C)C)[C@](C#N)(c2ccc(Cl)cc2F)[C@H]1c1cccc(Cl)c1F`, for which the IC50 in assay [1] and in assay [3] was at least 50 µM throughout. In addition, the deltaTm in assay [2] worked out at 0.9 K.

In the case of `Cc1ncsc1-c1ccc(CNC(=O)[C@@H]2C[C@@H](O)CN2C(=O)[C@@H](NC(=O)CCOCCOCCOCCOCCOCCOCCOc2ccc(-c3cn4c(n3)CCC4)cc2CNC(=O)Cc2ccc(Cl)c(Cl)c2)C(C)(C)C)cc1`, the IC50 in assay [1] and in assay [3] was at least 50 µM throughout. In addition, the deltaTm in assay [2] was 4.5 K.

As to `Cc1ncsc1-c1ccc(CNC(=O)[C@@H]2C[C@@H](O)CN2C(=O)[C@@H](NC(=O)CCOCCOc2ccc(-c3cn4c(n3)CCC4)cc2CNC(=O)Cc2ccc(Cl)c(Cl)c2)C(C)(C)C)cc1`, the IC50 in assay [1] and in assay [3] was at least 50 µM in each case. The compound also displayed a deltaTm in assay [2] of 7 K.
